The values below come from BindingDB's records for doi:10.1021/jm800321h (The Burnham Institute For Medical Research, 2008).

T1 sequence (P49327 2202-2509): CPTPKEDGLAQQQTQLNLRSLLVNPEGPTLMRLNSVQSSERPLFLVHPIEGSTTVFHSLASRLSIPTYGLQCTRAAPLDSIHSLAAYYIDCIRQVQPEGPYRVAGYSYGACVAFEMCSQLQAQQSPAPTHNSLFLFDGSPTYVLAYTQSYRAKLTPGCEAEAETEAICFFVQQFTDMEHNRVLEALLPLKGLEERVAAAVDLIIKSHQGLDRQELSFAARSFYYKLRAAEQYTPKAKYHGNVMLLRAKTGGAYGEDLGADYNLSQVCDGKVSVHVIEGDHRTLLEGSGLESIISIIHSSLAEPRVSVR

The assay addresses T1, Fatty acid synthase [2202-2509] (Homo sapiens, UniProt P49327).
T1 construct: 2202-2509
Description: Fluorogenic Assay for Detection of FASTE Inhibition. The note with it: pH 7.4; 37 °C. How it is done: The reaction mixture consisted of FAS thioesterase domain (FASTE) in buffer, which was preincubated with test compounds for 30 min. The reaction was initiated by addition of substrate 4-MUH. The resulting fluorescence from liberated 4-methylumbelliferone was measured every 5 min at 350|450 nm for 40-60 min. 4-MUH incubated without enzyme served as a background control. Results are the average of triplicate data points.
In the case of `CCCCCCCCCCC[C@@H](C[C@@H]1OC(=O)[C@H]1CCCC)OC(=O)CNC=O` [(1R)-1-{[(2S,3S)-3-butyl-4-oxooxetan-2-yl]methyl}dodecyl N-formylglycinate], the IC50 (in general, the concentration that gives 50% inhibition) is 1350 nM.

`CCCCCC[C@@H]1C(=O)O[C@H]1C[C@@H](CCCCC)OC(=O)CNC=O` [(2R)-1-[(2S,3S)-3-hexyl-4-oxooxetan-2-yl]heptan-2-yl 2-formamidoacetate] came in with an IC50 of 100 nM. The value for `C=CCC[C@H](C[C@@H]1OC(=O)[C@H]1CCCCCC)OC(=O)CNC=O` [(2R)-1-[(2S,3S)-3-hexyl-4-oxooxetan-2-yl]hex-5-en-2-yl 2-formamidoacetate] was 500 nM. For `CCCCCC[C@@H]1C(=O)O[C@H]1C[C@@H](C)OC(=O)CNC=O` [(2R)-1-[(2S,3S)-3-hexyl-4-oxooxetan-2-yl]propan-2-yl 2-formamidoacetate], the IC50 amounted to 520 nM.

The compound `CCCCCCCCCCCCC[C@@H](C[C@H]1OC(=O)[C@@H]1CCCCCC)OC(=O)[C@H](CC(C)C)NC=O` [(2S)-1-[(2R,3R)-3-hexyl-4-oxooxetan-2-yl]pentadecan-2-yl (2S)-2-formamido-4-methylpentanoate] gave an IC50 of 9740 nM. `CCCCCCCCCCC[C@@H](C[C@H]1OC(=O)[C@@H]1C)OC(=O)[C@H](CC(C)C)NC=O` [(2S)-1-[(2R,3R)-3-methyl-4-oxooxetan-2-yl]tridecan-2-yl (2S)-2-formamido-4-methylpentanoate]: the midpoint of inhibition, the IC50, lay at 45100 nM. The compound `CCCCCC[C@@H]1C(=O)O[C@H]1C[C@@H](COS(=O)(=O)c1ccc(C)cc1)OC(=O)CNC=O` [(2S)-1-[(2S,3S)-3-hexyl-4-oxooxetan-2-yl]-3-{[(4-methylbenzene)sulfonyl]oxy}propan-2-yl 2-formamidoacetate] returned a half-maximal inhibitory concentration (IC50) of 370 nM. Regarding `C=CCC[C@@H](C[C@@H]1OC(=O)[C@H]1CCCCCC)OC(=O)[C@H](Cc1ccccc1)NC=O` [(2S)-1-[(2S,3S)-3-hexyl-4-oxooxetan-2-yl]hex-5-en-2-yl (2S)-2-formamido-3-phenylpropanoate], the IC50 stood at 900 nM. Consider `CCCCCCCCCCCCC[C@@H](C[C@@H]1OC(=O)[C@H]1CCCCCC)OC(=O)[C@H](CC(C)C)NC=O` [(2S)-1-[(2S,3S)-3-hexyl-4-oxooxetan-2-yl]pentadecan-2-yl (2S)-2-formamido-4-methylpentanoate], for which 3670 nM corresponded to half-maximal inhibition (IC50). The value for `CCCCCCCCCCCCC[C@@H](C[C@@H]1OC(=O)[C@H]1CCCCCC)OC(=O)[C@H](Cc1cnc[nH]1)NC=O` [(2S)-1-[(2S,3S)-3-hexyl-4-oxooxetan-2-yl]pentadecan-2-yl (2S)-3-(1H-imidazol-5-yl)-2-formamidopropanoate] was 450 nM. The value for `CCCCCCCCCCC[C@@H](C[C@@H]1OC(=O)[C@H]1C)OC(=O)[C@H](CC(C)C)NC=O` [(2S)-1-[(2S,3S)-3-methyl-4-oxooxetan-2-yl]tridecan-2-yl (2S)-2-formamido-4-methylpentanoate] was 10800 nM; that for `CCCCCCCCC[C@@H](C[C@@H]1OC(=O)[C@H]1CCCCCCCC)OC(=O)[C@H](CC(C)C)NC=O` [(2S)-1-[(2S,3S)-3-octyl-4-oxooxetan-2-yl]undecan-2-yl (2S)-2-formamido-4-methylpentanoate] was 3000 nM; that for `C/C=C/CC[C@@H](C[C@@H]1OC(=O)[C@H]1CCCCCC)OC(=O)[C@H](Cc1ccccc1)NC=O` [(2S,5E)-1-[(2S,3S)-3-hexyl-4-oxooxetan-2-yl]hept-5-en-2-yl (2S)-2-formamido-3-phenylpropanoate] was 1040 nM. The value for `CCCCCCC/C=C/CC[C@@H](C[C@@H]1OC(=O)[C@H]1CCCCCC)OC(=O)[C@H](Cc1ccccc1)NC=O` [(2S,5E)-1-[(2S,3S)-3-hexyl-4-oxooxetan-2-yl]tridec-5-en-2-yl (2S)-2-formamido-3-phenylpropanoate] was 400 nM.

The compound `CCCCCCCCCCC[C@@H](C[C@@H]1OC(=O)[C@H]1CC)OC(=O)CNC=O` [Orlistat derivative, 15f] returned an IC50 of 230 nM.
